Data reported in patent US20230148226A1, “COMPOSITIONS OF STABLE FORMULATIONS OF VARENICLINE SALT OR BASE FORM WITH CONTROL ON NITROSO IMPURITIES” (The Texas A&M University System, priority 2021, published 2023).

assay: N-Nitroso-varenicline content in individual component (LCMS); format: physicochemical; conditions: not given
Experimental: Liquid chromatography—mass spectrometry (LCMS) method development for NVC. Ultra-pressure liquid chromatography (UPLC) was used to detect NVC in samples. An ACQUITY™ UPLC™ H-Class PLUS System was utilized with the following configuration. The needle was washed with 80:20 methanol:water and the sample temperature was 10° C. The injection volume was 25 μL and a WATERS™ Acquity UPLC BEH Phenyl 1.7 μm 2.1×100 mm column was used having a column temperature of 30° C. Mobile phase A was 0.1% formic acid in water, and mobile phase B was acetonitrile. A 0.5 mL/min flow rate was utilized. Table 1 and Table 2, shown below, illustrate gradient method parameters and LCMS method validation for NVC, respectively.
Screening excipients for varenicline. Excipients were screened to determine which excipients were promoting nitroso impurities. Varenicline and excipients were physically mixed in 1:1 weight ratio and exposed to 40° C./75% RH for 4 weeks (Table 3 and Table 4).

Row | Compound | N-Nitroso-varenicline [ng]
1 | 7,8,9,10-tetrahydro-6,10-methano-6H-pyrazino(2,3-h)(3)benzazepinex [Varenicline Tartrate, reference compound] | 0
2 | O.OC[C@H]1O[C@@H](O[C@H]2[C@H](O)[C@@H](O)C(O)O[C@@H]2CO)[C@H](O)[C@@H](O)[C@H]1O (stereo partly drawn) [Lactose Monohydrate] | 0
3 | Magnesium Stearate | 0

assay: not given; conditions: FDA recommended limit; cited from earlier work

Row | Compound | Acceptable daily intake limit (FDA) [ng/day]
4 | CCN(CC)N=O [NDEA, N-nitrosodiethylamine] | 26.5
5 | CC(C)N(N=O)C(C)C [NDIPA, N-nitrosodiisopropylamine] | 26.5
6 | CN(C)N=O [NDMA, N-nitrosodimethylamine] | 96
7 | CCN(N=O)C(C)C [NIPEA, N-nitrosoisopropylethyl amine] | 26.5
8 | CN(CCCC(=O)O)N=O [NMBA, N-nitroso-N-methyl-4-aminobutanoic acid] | 96
9 | O=NN1CC2CC(C1)c1cc3nccnc3cc12 [NVC, N-nitroso-varenicline] | 37
